Molecular target: T1, N-formyl peptide receptor 2 (Homo sapiens, UniProt P25090)
T1 sequence (P25090 whole entry): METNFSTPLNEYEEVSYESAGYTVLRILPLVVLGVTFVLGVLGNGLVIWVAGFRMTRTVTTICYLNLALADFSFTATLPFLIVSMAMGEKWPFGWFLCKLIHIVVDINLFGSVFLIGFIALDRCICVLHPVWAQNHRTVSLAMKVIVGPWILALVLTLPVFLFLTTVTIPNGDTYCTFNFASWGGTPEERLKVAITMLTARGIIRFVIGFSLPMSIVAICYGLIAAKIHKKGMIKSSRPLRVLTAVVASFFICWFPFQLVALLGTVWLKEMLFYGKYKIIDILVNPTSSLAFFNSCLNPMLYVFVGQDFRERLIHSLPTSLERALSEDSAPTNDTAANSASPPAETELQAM
Assay: Agonist activity at human FPR2 receptor expressed in CHO cells assessed as forskolin/IBMX-induced intracellular cAMP level incubated for 30 mins by HTRF HiRange cAMP assay
Format: functional, cell-based

Row | EC50 | SMILES
1 | 4.4 nM | O=C(Nc1ccc(Cl)cc1F)NC1CCN(c2c(F)cc(N3CCCS3(=O)=O)cc2F)C1=O (stereo unspecified)
2 | 0.27 nM | CN(CCO)[C@@H]1CCN(c2ccc(N3CCC(NC(=O)Nc4ccc(Cl)cc4)C3=O)c(F)c2F)C1 (stereo partly specified)
3 | 0.19 nM | CN(C)[C@@H]1CCN(c2ccc(N3CC[C@@H](NC(=O)Nc4ccc(Cl)cc4)C3=O)c(F)c2F)C1
4 | 7.2 nM | O=C(Nc1ccc(C(F)(F)F)cc1F)NC1CCN(c2c(F)cc(N3CCCS3(=O)=O)cc2F)C1=O (stereo unspecified)
5 | 0.21 nM | CN(C)[C@@H]1CCN(c2ccc(N3CC[C@@H](NC(=O)Nc4ccc(C(F)(F)F)cc4)C3=O)c(F)c2F)C1
6 | 5.6 nM | CN[C@@H]1CCN(c2ccc(N3CCC(NC(=O)Nc4ccc(Cl)cc4)C3=O)c(F)c2F)C1 (stereo partly specified)
